The supplement of paper PMC10307832

Legend:
Experiment in all cases: relative viability (nuclei count vs DMSO), 5 days (fraction); higher = more cells survive
[1] = test system: NCI-H2347
Method in brief: (§1)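 Lung cancer cell lines were pin-tool dosed in 1536-well plates on the day after seeding, with either a lone drug or a fixed anchor-drug dose plus five library-drug doses (not always all listed) in √10 steps. Nuclei were counted on 4× images after 5 days. Relative viability is the ratio of treated-well to vehicle-well nuclei counts, with each value a median of duplicate plates.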

[2] = test system: NCI-H460
Method in brief: as §1

[3] = test system: SW 1573
Method in brief: as §1

[4] = test system: HCC-78
Method in brief: as §1

[5] = test system: RERF-LC-KJ
Method in brief: as §1

[6] = test system: NCI-H1915
Method in brief: as §1

[7] = test system: LXF-289
Method in brief: as §1

[8] = test system: HCC-15
Method in brief: as §1

[9] = test system: NCI-H2126
Method in brief: as §1

[10] = test system: NCI-H2228
Method in brief: as §1

[11] = test system: A-427
Method in brief: as §1

[12] = test system: LC-2-ad
Method in brief: as §1

[13] = test system: SK-LU-1
Method in brief: as §1

[14] = test system: PC-3 [JPC-3]
Method in brief: as §1

[15] = test system: NCI-H647
Method in brief: as §1

[16] = test system: NCI-H1755
Method in brief: as §1

[17] = test system: LOU-NH91
Method in brief: as §1

[18] = test system: NCI-H1792
Method in brief: as §1

[19] = test system: NCI-H1734
Method in brief: as §1

[20] = test system: HOP-62
Method in brief: as §1

[21] = test system: NCI-H1975
Method in brief: as §1

Structure (SMILES): COc1cc(N2CCC(C(N)=O)CC2)ccc1Nc1nc(N)c(Cl)c(Nc2ccccc2S(=O)(=O)C(C)C)n1 [HG-5-88-01] + CC(C)C[C@H](NC(=O)[C@H](Cc1ccccc1)NC(=O)c1cnccn1)B(O)O [Bortezomib] (partner 0.002 µM)
- relative viability ([1]; first compound 0.04 µM): 0.954
- relative viability ([1]; first compound 0.1265 µM): 0.873
- relative viability ([1]; first compound 0.4 µM): 1.01
- relative viability ([1]; first compound 1.265 µM): 1.16
- relative viability ([1]; first compound 4 µM): 0.897
- relative viability ([2]; first compound 0.04 µM): 0.955
- relative viability ([2]; first compound 0.1265 µM): 1.17
- relative viability ([2]; first compound 0.4 µM): 1.09
- relative viability ([2]; first compound 1.265 µM): 1.04
- relative viability ([2]; first compound 4 µM): 1.28
- relative viability ([3]; first compound 0.04 µM): 1.34
- relative viability ([3]; first compound 0.1265 µM): 1.08
- relative viability ([3]; first compound 0.4 µM): 0.997
- relative viability ([3]; first compound 1.265 µM): 0.978
- relative viability ([3]; first compound 4 µM): 0.821
- relative viability ([4]; first compound 0.04 µM): 0.467
- relative viability ([4]; first compound 0.1265 µM): 0.369
- relative viability ([4]; first compound 0.4 µM): 0.393
- relative viability ([4]; first compound 1.265 µM): 0.218
- relative viability ([4]; first compound 4 µM): 0.211
- relative viability ([5]; first compound 0.04 µM): 1.23
- relative viability ([5]; first compound 0.1265 µM): 1.19
- relative viability ([5]; first compound 0.4 µM): 1.08
- relative viability ([5]; first compound 1.265 µM): 0.992
- relative viability ([5]; first compound 4 µM): 0.639
- relative viability ([6]; first compound 0.04 µM): 0.977
- relative viability ([6]; first compound 0.1265 µM): 0.941
- relative viability ([6]; first compound 0.4 µM): 0.941
- relative viability ([6]; first compound 1.265 µM): 0.974
- relative viability ([6]; first compound 4 µM): 0.621
- relative viability ([7]; first compound 0.04 µM): 1.04
- relative viability ([7]; first compound 0.1265 µM): 0.994
- relative viability ([7]; first compound 0.4 µM): 0.909
- relative viability ([7]; first compound 1.265 µM): 1.05
- relative viability ([7]; first compound 4 µM): 0.981
- relative viability ([8]; first compound 0.04 µM): 1
- relative viability ([8]; first compound 0.1265 µM): 1.09
- relative viability ([8]; first compound 0.4 µM): 0.966
- relative viability ([8]; first compound 1.265 µM): 1.02
- relative viability ([8]; first compound 4 µM): 0.746
- relative viability ([9]; first compound 0.04 µM): 1.16
- relative viability ([9]; first compound 0.1265 µM): 1.12
- relative viability ([9]; first compound 0.4 µM): 1.13
- relative viability ([9]; first compound 1.265 µM): 1.15
- relative viability ([9]; first compound 4 µM): 1.12
- relative viability ([10]; first compound 0.04 µM): 0.363
- relative viability ([10]; first compound 0.1265 µM): 0.478
- relative viability ([10]; first compound 0.4 µM): 0.292
- relative viability ([10]; first compound 1.265 µM): 0.255
- relative viability ([10]; first compound 4 µM): 0.345
- relative viability ([11]; first compound 0.04 µM): 0.968
- relative viability ([11]; first compound 0.1265 µM): 0.955
- relative viability ([11]; first compound 0.4 µM): 1.01
- relative viability ([11]; first compound 1.265 µM): 1.05
- relative viability ([11]; first compound 4 µM): 0.804
- relative viability ([12]; first compound 0.04 µM): 1.06
- relative viability ([12]; first compound 0.1265 µM): 1.04
- relative viability ([12]; first compound 0.4 µM): 0.945
- relative viability ([12]; first compound 1.265 µM): 0.973
- relative viability ([12]; first compound 4 µM): 0.819
- relative viability ([13]; first compound 0.04 µM): 0.976
- relative viability ([13]; first compound 0.1265 µM): 1.2
- relative viability ([13]; first compound 0.4 µM): 1.07
- relative viability ([13]; first compound 1.265 µM): 0.973
- relative viability ([13]; first compound 4 µM): 0.336
- relative viability ([14]; first compound 0.04 µM): 0.982
- relative viability ([14]; first compound 0.1265 µM): 0.928
- relative viability ([14]; first compound 0.4 µM): 0.819
- relative viability ([14]; first compound 1.265 µM): 0.849
- relative viability ([14]; first compound 4 µM): 0.533
- relative viability ([15]; first compound 0.04 µM): 1.02
- relative viability ([15]; first compound 0.1265 µM): 0.826
- relative viability ([15]; first compound 1.265 µM): 1.07
- relative viability ([15]; first compound 4 µM): 0.967
- relative viability ([16]; first compound 0.1265 µM): 0.911
- relative viability ([16]; first compound 0.4 µM): 0.885
- relative viability ([16]; first compound 1.265 µM): 0.92
- relative viability ([16]; first compound 4 µM): 0.975
- relative viability ([17]; first compound 0.04 µM): 0.54
- relative viability ([17]; first compound 0.1265 µM): 0.53
- relative viability ([17]; first compound 0.4 µM): 0.472
- relative viability ([17]; first compound 1.265 µM): 0.48
- relative viability ([17]; first compound 4 µM): 0.48
- relative viability ([18]; first compound 0.04 µM): 0.975
- relative viability ([18]; first compound 0.1265 µM): 0.929
- relative viability ([18]; first compound 0.4 µM): 0.941
- relative viability ([18]; first compound 1.265 µM): 0.817
- relative viability ([18]; first compound 4 µM): 0.958
- relative viability ([19]; first compound 0.04 µM): 0.899
- relative viability ([19]; first compound 0.1265 µM): 0.975
- relative viability ([19]; first compound 0.4 µM): 0.958
- relative viability ([19]; first compound 1.265 µM): 0.868
- relative viability ([19]; first compound 4 µM): 0.83
- relative viability ([20]; first compound 0.04 µM): 0.684
- relative viability ([20]; first compound 0.1265 µM): 0.732
- relative viability ([20]; first compound 0.4 µM): 0.77
- relative viability ([20]; first compound 1.265 µM): 0.76
- relative viability ([20]; first compound 4 µM): 0.732
- relative viability ([21]; first compound 0.04 µM): 0.349
- relative viability ([21]; first compound 0.1265 µM): 0.452
- relative viability ([21]; first compound 0.4 µM): 0.381
- relative viability ([21]; first compound 1.265 µM): 0.344
- relative viability ([21]; first compound 4 µM): 0.23
